Data: the supplement of paper PMC11451515

Test system: SEM cells
Test: cell viability relative to DMSO control; higher = less cytotoxic
Conditions: 48 h
Outline: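 NOMO1 or SEM (500 cells/well) or P12-Ichikawa (1000 cells/well) leukemia cells were adapted for at least four passages in each medium. They were seeded in 1536-well plates (5 μl) and pin-dosed with library compounds in DMSO over an 11-point threefold series, 47 μM to 0.79 nM. CellTiter-Glo One luminescence was read after 48 h at 37°C. Viability is the per-plate percentage relative to DMSO wells, with cell-free wells as background.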

[1] = RPMI 5 mM glucose + 10% FBS, 0.000781 µM
[2] = RPMI 5 mM glucose + 10% FBS, 0.00234 µM
[3] = RPMI 5 mM glucose + 10% FBS, 0.00702 µM
[4] = RPMI 5 mM glucose + 10% FBS, 0.0211 µM
[5] = RPMI 5 mM glucose + 10% FBS, 0.0632 µM
[6] = RPMI 5 mM glucose + 10% FBS, 0.19 µM
[7] = RPMI 5 mM glucose + 10% FBS, 0.569 µM
[8] = RPMI 5 mM glucose + 10% FBS, 1.71 µM
[9] = RPMI 5 mM glucose + 10% FBS, 5.12 µM
[10] = RPMI 5 mM glucose + 10% FBS, 15.4 µM
[11] = RPMI 5 mM glucose + 10% FBS, 46.1 µM
[12] = HPLM + 10% dialyzed FBS, 0.000781 µM
[13] = HPLM + 10% dialyzed FBS, 0.00234 µM
[14] = HPLM + 10% dialyzed FBS, 0.00702 µM
[15] = HPLM + 10% dialyzed FBS, 0.0211 µM
[16] = HPLM + 10% dialyzed FBS, 0.0632 µM
[17] = HPLM + 10% dialyzed FBS, 0.19 µM
[18] = HPLM + 10% dialyzed FBS, 0.569 µM
[19] = HPLM + 10% dialyzed FBS, 1.71 µM
[20] = HPLM + 10% dialyzed FBS, 5.12 µM
[21] = HPLM + 10% dialyzed FBS, 15.4 µM
[22] = HPLM + 10% dialyzed FBS, 46.1 µM
[23] = RPMI 5 mM glucose + 10% dialyzed FBS, 0.000781 µM
[24] = RPMI 5 mM glucose + 10% dialyzed FBS, 0.00234 µM
[25] = RPMI 5 mM glucose + 10% dialyzed FBS, 0.00702 µM
[26] = RPMI 5 mM glucose + 10% dialyzed FBS, 0.0211 µM
[27] = RPMI 5 mM glucose + 10% dialyzed FBS, 0.0632 µM
[28] = RPMI 5 mM glucose + 10% dialyzed FBS, 0.19 µM
[29] = RPMI 5 mM glucose + 10% dialyzed FBS, 0.569 µM
[30] = RPMI 5 mM glucose + 10% dialyzed FBS, 1.71 µM
[31] = RPMI 5 mM glucose + 10% dialyzed FBS, 5.12 µM
[32] = RPMI 5 mM glucose + 10% dialyzed FBS, 15.4 µM
[33] = RPMI 5 mM glucose + 10% dialyzed FBS, 46.1 µM

Cc1cccc(-c2nn(C(=S)Nc3ccccc3)cc2-c2ccnc3ccccc23)n1 was tested, and the cell viability [1] was 117%, the cell viability [2] was 124% and the cell viability [3] was 139%. The cell viability [4] was 131%, the cell viability [5] was 152% and the cell viability [6] was 130%. The cell viability [7] was 121%, the cell viability [8] was 126% and the cell viability [9] was 110%. It also gave a cell viability [10] of 118% and a cell viability [11] of 42.2%.
Work on NC(CO)(CO)CCc1ccc(Sc2cccc(OCc3ccccc3)c2)cc1Cl yielded a cell viability [12] of 89.6%, a cell viability [13] of 95.8% and a cell viability [14] of 95.2%. The cell viability [15] was 56.6%, the cell viability [16] was 99.1% and the cell viability [17] was 121%. It also gave a cell viability [18] of 6.82%, a cell viability [19] of 72.9% and a cell viability [20] of 103%. The cell viability [21] was 53.9%, the cell viability [22] was 6.98% and the cell viability [1] was 82.7%. For the same molecule, the cell viability [2] was 99%, the cell viability [3] was 94.9% and the cell viability [4] was 49.6%. The cell viability [5] was 104%, the cell viability [6] was 114% and the cell viability [7] was 7.12%. It also gave a cell viability [8] of 67.1%, a cell viability [9] of 91.7% and a cell viability [10] of 34.3%. The cell viability [11] was 7.48%, the cell viability [23] was 80.3% and the cell viability [24] was 105%. The cell viability [25] was 99.6%, the cell viability [26] was 85.2% and the cell viability [27] was 111%. It also gave a cell viability [28] of 124%, a cell viability [29] of 8.44% and a cell viability [30] of 60.7%. The cell viability [31] was 105%, the cell viability [32] was 45.6% and the cell viability [33] was 13.2%.
In the case of CC1=C(C=CC=C1)N2\C(=N/C3=C(C(=CC=C3)C)C2=O)C[N]4N=CC5=C4N=CN=C5N, the cell viability [12] was 99.5%, the cell viability [13] was 117% and the cell viability [14] was 119%. For the same molecule, the cell viability [15] was 128%, the cell viability [16] was 124% and the cell viability [17] was 128%. The cell viability [18] was 121%, the cell viability [19] was 123% and the cell viability [20] was 125%. It also gave a cell viability [21] of 117%, a cell viability [22] of 121% and a cell viability [1] of 100%. The cell viability [2] was 124%, the cell viability [3] was 141% and the cell viability [4] was 113%. For the same molecule, the cell viability [5] was 113%, the cell viability [6] was 136% and the cell viability [7] was 135%. The cell viability [8] was 135%, the cell viability [9] was 124% and the cell viability [10] was 131%. The cell viability [11] was 119%.
Molecule O=C(/C=C/c1c(C(=O)[O-])[nH]c2cc(Cl)cc(Cl)c12)Nc1ccccc1 has a cell viability [12] of 89.9%, a cell viability [13] of 120% and a cell viability [14] of 122%. It also gave a cell viability [15] of 122%, a cell viability [16] of 127% and a cell viability [17] of 114%. It also gave a cell viability [18] of 123%, a cell viability [19] of 132% and a cell viability [20] of 124%. For the same molecule, the cell viability [21] was 115%, the cell viability [22] was 73.1% and the cell viability [1] was 110%. It also gave a cell viability [2] of 113%, a cell viability [3] of 106% and a cell viability [4] of 102%. It also gave a cell viability [5] of 118%, a cell viability [6] of 112% and a cell viability [7] of 121%. For the same molecule, the cell viability [8] was 122%, the cell viability [9] was 129% and the cell viability [10] was 118%. The cell viability [11] was 65.1%, the cell viability [23] was 95.9% and the cell viability [24] was 103%. It also gave a cell viability [25] of 110%, a cell viability [26] of 119% and a cell viability [27] of 104%. The cell viability [28] was 125%, the cell viability [29] was 101% and the cell viability [30] was 121%. The cell viability [31] was 128%, the cell viability [32] was 118% and the cell viability [33] was 60%.
In the case of Cc1c(Cn2c(C)nc3c(C(=O)O)cc(N4CCOCC4)cc32)cccc1C(F)(F)F, the cell viability [12] was 84.5%, the cell viability [13] was 101% and the cell viability [14] was 109%. The cell viability [15] was 111%, the cell viability [16] was 101% and the cell viability [17] was 97.1%. The cell viability [18] was 115%, the cell viability [19] was 109% and the cell viability [20] was 103%. For the same molecule, the cell viability [21] was 117%, the cell viability [22] was 103% and the cell viability [1] was 93.2%. It also gave a cell viability [2] of 115%, a cell viability [3] of 102% and a cell viability [4] of 106%. For the same molecule, the cell viability [5] was 103%, the cell viability [6] was 112% and the cell viability [7] was 119%. The cell viability [8] was 114%, the cell viability [9] was 107% and the cell viability [10] was 89.1%. For the same molecule, the cell viability [11] was 88.5%, the cell viability [23] was 94.1% and the cell viability [24] was 105%. It also gave a cell viability [25] of 100%, a cell viability [26] of 109% and a cell viability [27] of 112%. For the same molecule, the cell viability [28] was 95.5%, the cell viability [29] was 103% and the cell viability [30] was 95.5%. The cell viability [31] was 90.1%, the cell viability [32] was 92.3% and the cell viability [33] was 79.8%.
Work on CCOc1cc(N)c(Cl)cc1C(=O)NCC1CN(Cc2ccc(F)cc2)CCO1 (stereo unspecified) yielded a cell viability [12] of 85.4%, a cell viability [13] of 110% and a cell viability [14] of 104%. It also gave a cell viability [15] of 100%, a cell viability [16] of 109% and a cell viability [17] of 112%. For the same molecule, the cell viability [18] was 128%, the cell viability [19] was 114% and the cell viability [20] was 118%. It also gave a cell viability [21] of 119%, a cell viability [22] of 132% and a cell viability [1] of 99.8%. For the same molecule, the cell viability [2] was 113%, the cell viability [3] was 107% and the cell viability [4] was 116%. For the same molecule, the cell viability [5] was 114%, the cell viability [6] was 114% and the cell viability [7] was 95.5%. For the same molecule, the cell viability [8] was 115%, the cell viability [9] was 109% and the cell viability [10] was 94.7%. For the same molecule, the cell viability [11] was 90.3%, the cell viability [23] was 113% and the cell viability [24] was 110%. The cell viability [25] was 100%, the cell viability [26] was 109% and the cell viability [27] was 119%. The cell viability [28] was 122%, the cell viability [29] was 112% and the cell viability [30] was 115%. The cell viability [31] was 105%, the cell viability [32] was 104% and the cell viability [33] was 92.5%.
With O=C1\C=C/C[C@@H]2[C@H]3CCCN4CCC[C@@H](CN12)[C@@H]34 the cell viability [12] was 109%, the cell viability [13] was 113% and the cell viability [14] was 111%. The cell viability [15] was 112%, the cell viability [16] was 99.6% and the cell viability [17] was 105%. It also gave a cell viability [18] of 117%, a cell viability [19] of 112% and a cell viability [20] of 93.4%. It also gave a cell viability [21] of 102%, a cell viability [22] of 101% and a cell viability [1] of 90.8%. It also gave a cell viability [2] of 77.1%, a cell viability [3] of 103% and a cell viability [4] of 108%. The cell viability [5] was 101%, the cell viability [6] was 59.3% and the cell viability [7] was 99.5%. The cell viability [8] was 107%, the cell viability [9] was 87.1% and the cell viability [10] was 88.6%. For the same molecule, the cell viability [11] was 95.7%, the cell viability [23] was 89.1% and the cell viability [24] was 108%. It also gave a cell viability [25] of 101%, a cell viability [26] of 115% and a cell viability [27] of 108%. For the same molecule, the cell viability [28] was 81.8%, the cell viability [29] was 106% and the cell viability [30] was 118%. It also gave a cell viability [31] of 105%, a cell viability [32] of 98.9% and a cell viability [33] of 92.2%.
Work on Cn1c(Nc2ccc(C(F)(F)F)cc2)nc2cc(Oc3ccnc(-c4nc(C(F)(F)F)c[nH]4)c3)ccc21 yielded a cell viability [12] of 97.1%, a cell viability [13] of 114% and a cell viability [14] of 116%. The cell viability [15] was 96.8%, the cell viability [16] was 127% and the cell viability [17] was 115%. The cell viability [18] was 109%, the cell viability [19] was 96.2% and the cell viability [20] was 59.6%. For the same molecule, the cell viability [21] was 55.1%, the cell viability [22] was 24.8% and the cell viability [1] was 111%. The cell viability [2] was 109%, the cell viability [3] was 124% and the cell viability [4] was 94.8%. The cell viability [5] was 136%, the cell viability [6] was 117% and the cell viability [7] was 122%. The cell viability [8] was 98.2%, the cell viability [9] was 53.4% and the cell viability [10] was 44.2%. The cell viability [11] was 12.7%, the cell viability [23] was 108% and the cell viability [24] was 118%. For the same molecule, the cell viability [25] was 134%, the cell viability [26] was 102% and the cell viability [27] was 128%. It also gave a cell viability [28] of 130%, a cell viability [29] of 116% and a cell viability [30] of 112%. For the same molecule, the cell viability [31] was 55.3%, the cell viability [32] was 48.6% and the cell viability [33] was 18.1%.
